Values of other authors in paper PMC2803440 (Current Chemical Genomics, 2008).

Target: recombinant variant of PON1

Compound: Oc1ccc2ccccc2n1 [Compound 2HQ, 2-hydroxyquinoline]
- Ki: 3 µM
